Source: US8735414B2 (priority 2009, dated 2014)

Key:
[1] = test system: bicistronic HCV replicon (replicon RNA, GenBank Accession No. AJ242654); test: HCV Replicon Assay; format: cell-based; settings: Hepatitis C virus, 72 h, read-out: Replicon IC50

Structure (SMILES)	IC50 [1] [nM]	melting point [°C]
Cc1cc2c(cc1F)c(C#N)c(-c1ccc(S(=O)(=O)N[C@@H](C)C(F)(F)F)cn1)n2-c1nncs1 [compound 977, 6-[3-cyano-5-fluoro-6-methyl-1-(1,3,4-thiadiazol-2-yl)-1H-indol-2-yl]-N-[(2S)-1,1,1-trifluoropropan-2-yl]pyridine-3-sulfonamide]	< 500	232 to 240
Cc1c(F)cc2c(C#N)c(-c3ccc(S(=O)(=O)NC(C)(C)C(F)(F)F)cn3)n(C3CCC3)c2c1F [compound 577, 6-(3-cyano-1-cyclobutyl-5,7-difluoro-6-methyl-1H-indol-2-yl)-N-(1,1,1-trifluoro-2-methylpropan-2-yl)pyridine-3-sulfonamide]	< 500	180 to 187
CCc1cc2c(cc1F)c(C#N)c(-c1ccc(S(=O)(=O)N[C@@H](C)C(F)(F)F)c(C)n1)n2-c1ncccn1 [compound 881, 6-[3-cyano-6-ethyl-5-fluoro-1-(pyrimidin-2-yl)-1H-indol-2-yl]-2-methyl-N-[(2S)-1,1,1-trifluoropropan-2-yl]pyridine-3-sulfonamide]	< 500	258 to 262
CCc1ccc2c(C#N)c(-c3ccc(S(=O)(=O)NC(C)C)cn3)n(C(C)C)c2c1 [compound 75, 6-[3-cyano-6-ethyl-1-(propan-2-yl)-1H-indol-2-yl]-N-(propan-2-yl)pyridine-3-sulfonamide]	< 500	185 to 186
Cc1cc2c(cc1F)c(C#N)c(-c1ccc(S(=O)(=O)NC(C)(C)C(F)(F)F)cn1)n2C1CCC1 [compound 539, 6-(3-cyano-1-cyclobutyl-5-fluoro-6-methyl-1H-indol-2-yl)-N-(1,1,1-trifluoro-2-methylpropan-2-yl)pyridine-3-sulfonamide]	< 500	238 to 243
CNC(=O)c1c(-c2ccc(S(=O)(=O)NC(C)(C)C)cn2)n(C2CCC2)c2cc(C)c(F)cc12 [compound 795, 2-[5-(tert-butylsulfamoyl)pyridin-2-yl]-1-cyclobutyl-5-fluoro-N,6-dimethyl-1H-indole-3-carboxamide]	< 500	215 to 218
Cc1ccnc(-n2c(-c3ccc(S(=O)(=O)N[C@@H](C)C(F)(F)F)cn3)c(C#N)c3cc(F)c(C)cc32)c1 [compound 886, 6-[3-cyano-5-fluoro-6-methyl-1-(4-methylpyridin-2-yl)-1H-indol-2-yl]-N-[(2S)-1,1,1-trifluoropropan-2-yl]pyridine-3-sulfonamide]	< 500	200 to 204
Cc1ccc2c(c1)c(C#N)c(-c1ncc(S(=O)(=O)N[C@@H](C)C(F)(F)F)cn1)n2C1CCCCC1 [compound 390, 2-(3-cyano-1-cyclohexyl-5-methyl-1H-indol-2-yl)-N-[(2S)-1,1,1-trifluoropropan-2-yl]pyrimidine-5-sulfonamide]	500 to 2000	218 to 223
Cc1cc2c(cc1F)c(C#N)c(-c1ccc(S(=O)(=O)N[C@@H](C)C(F)(F)F)cn1)n2-c1sccc1C [compound 1000, 6-[3-cyano-5-fluoro-6-methyl-1-(3-methylthiophen-2-yl)-1H-indol-2-yl]-N-[(2S)-1,1,1-trifluoropropan-2-yl]pyridine-3-sulfonamide]	< 500	197 to 203.8
C[C@H](NS(=O)(=O)c1ccc(-c2c(C#N)c3cc(F)c(C4CC4)cc3n2-c2ccccn2)nc1)C(F)(F)F [compound 819, 6-[3-cyano-6-cyclopropyl-5-fluoro-1-(pyridin-2-yl)-1H-indol-2-yl]-N-[(2S)-1,1,1-trifluoropropan-2-yl]pyridine-3-sulfonamide]	< 500	220 to 223
Cc1cc2c(cc1F)c(C(=O)NC(C)C)c(-c1ccc(S(=O)(=O)N[C@@H](C)C(F)(F)F)cn1)n2C1CCCC1 [compound 763, 1-cyclopentyl-5-fluoro-6-methyl-N-(propan-2-yl)-2-(5-{[(2S)-1,1,1-trifluoropropan-2-yl]sulfamoyl}pyridin-2-yl)-1H-indole-3-carboxamide]	500 to 2000	234 to 236
CC(C)n1c(-c2ccc(S(=O)(=O)NC(CF)CF)cn2)c(C#N)c2ccc(Cl)cc21 [compound 63, 6-[6-chloro-3-cyano-1-(propan-2-yl)-1H-indol-2-yl]-N-(1,3-difluoropropan-2-yl)pyridine-3-sulfonamide]	< 500	200 to 202
Cc1ccc2c(C#N)c(-c3ccc(S(=O)(=O)N[C@H](C)C(F)(F)F)cn3)n(CC3CC3)c2c1 [compound 197, 6-[3-cyano-1-(cyclopropylmethyl)-6-methyl-1H-indol-2-yl]-N-[(2R)-1,1,1-trifluoropropan-2-yl]pyridine-3-sulfonamide]	< 500	165 to 169
CCc1cc2c(cc1F)c(C#N)c(-c1ccc(S(=O)(=O)N[C@@H](C)C(F)(F)F)cn1)n2-c1ccc(OC)cc1 [compound 1005, 6-[3-cyano-6-ethyl-5-fluoro-1-(4-methoxyphenyl)-1H-indol-2-yl]-N-[(2S)-1,1,1-trifluoropropan-2-yl]pyridine-3-sulfonamide]	< 500	261 to 266
Cc1ccc2c(C#N)c(-c3ncc(S(=O)(=O)NC(CF)CF)cn3)n(-c3ccccc3)c2c1 [compound 260, 2-(3-cyano-6-methyl-1-phenyl-1H-indol-2-yl)-N-(1,3-difluoropropan-2-yl)pyrimidine-5-sulfonamide]	< 500	169 to 171
N#Cc1c(-c2ncc(S(=O)(=O)NC(CF)CF)cn2)n(CC2CC2)c2cc(C3CC3)ccc12 [compound 344, 2-[3-cyano-6-cyclopropyl-1-(cyclopropylmethyl)-1H-indol-2-yl]-N-(1,3-difluoropropan-2-yl)pyrimidine-5-sulfonamide]	< 500	205 to 210
C[C@H](NS(=O)(=O)c1ccc(-c2c(C#N)c3ccc(Cl)cc3n2-c2ccccn2)nc1)C(F)(F)F [compound 437, 6-[6-chloro-3-cyano-1-(pyridin-2-yl)-1H-indol-2-yl]-N-[(2S)-1,1,1-trifluoropropan-2-yl]pyridine-3-sulfonamide]	< 500	177 to 178
Cc1cc2c(cc1F)c(C#N)c(-c1ccc(S(=O)(=O)N[C@@H](C)C(F)(F)F)cn1)n2-c1ccccn1 [compound 541, 6-[3-cyano-5-fluoro-6-methyl-1-(pyridin-2-yl)-1H-indol-2-yl]-N-[(2S)-1,1,1-trifluoropropan-2-yl]pyridine-3-sulfonamide]	< 500	160 to 164
CCc1ccc2c(c1)c(C#N)c(-c1ccc(S(=O)(=O)NC(CF)CF)cn1)n2C1CCCC1 [compound 381, 6-(3-cyano-1-cyclopentyl-5-ethyl-1H-indol-2-yl)-N-(1,3-difluoropropan-2-yl)pyridine-3-sulfonamide]	< 500	167 to 168
N#Cc1c(-c2ncc(S(=O)(=O)NC(CF)CF)cn2)n(C2CCC2)c2cc(CF)ccc12 [compound 361, 2-[3-cyano-1-cyclobutyl-6-(fluoromethyl)-1H-indol-2-yl]-N-(1,3-difluoropropan-2-yl)pyrimidine-5-sulfonamide]	< 500	226 to 232
